Key:
[1] = system: New Zealand white rabbits; assay: Pupil diameter / mydriasis after topical application to the rabbit eye; assay type: in vivo; conditions: mean ± S.E.
Procedure: (§1) These diastereomers were administered topically as either 1% or 2% solutions in buffered saline. Pupillary diameter and IOP were measured in all animals over a six hour time period during the day to minimize diurnal variations in IOP and pupil diameter.
(§2) The experiments were performed on adult male New Zealand white rabbits weighing 3.0–6.0 kg. All rabbits were caged individually and maintained on a 12 hr/12 hr light/dark schedule with free access to food and water. All animal procedures were in conformity with the ARVO Resolution on the Use and Care of Animals in Research. All treated rabbits had served as controls by having received a saline treatment on a different day.
(§3) Only one eye received drug treatment. The contralateral eye served as a control. Saline (or PBS) and drug treated rabbits were treated and observed simultaneously. A single dose was given at time zero and IOP and pupil diameter measured at −1.0, −0.5, 0.5, 1, 3 and 5 hrs post-treatment.
Pupil diameter was measured visually at the point of the greatest horizontal diameter with a transparent millimeter ruler. All measurements were made under the identical ambient lighting conditions.
(§4) Mean and Standard Error values were used to construct time-response and dose-response curves for the treated and contralateral eye of research rabbits. The data were analyzed statistically by an analysis of variance and a Bonferoni's test for significance. P<0.05 was the accepted level of significance.

Swiss-Webster mice [2] = assay: H1 receptor antagonist (triprolidine) interaction study, locomotor activity in mice; conditions: mice pretreated with triprolidine 20 min before the test compound
Procedure: H1 receptor antagonist interaction studies. […] The mice were immediately placed in the activity testing chamber for a 2-h session. Doses of the test compound were selected from the ascending or descending time of the dose-effect curve determined from the compound-alone studies. Eight mice were tested for each triprolidine/test compound combination.
(§5) Statistical analysis. Time course data for each compound were considered in 2-way analyses of variance with dose as a between-group and time as a within-group factor. The dose-effect data were considered in 1-way analyses of variance, and planned individual comparisons were conduced between each dose and the saline control group. Interaction studies were considered in 2-way analyses of variance, with Pretreatment and Test dose as the factors.

[3] = system: New Zealand white rabbits; assay: Intraocular pressure (IOP) after topical application to the rabbit eye; assay type: in vivo; conditions: mean ± S.E.
Procedure: as §1, §2, §3
IOP measurements were recorded with an Alcon Applanation Pneumotonograph (Surgical Products Division, Alcon Laboratories, Inc., Ft. Worth, Tex.) in rabbits placed in Lucite restraining cages. Initial topical application of a two drop 0.5% proparacaine HCl (Ophthetic®, Allergan Pharmaceuticals, Inc.) was performed on each rabbit.
as §4

Swiss-Webster mice [4] = assay: Locomotor stimulant and depressant effects in mice; conditions: i.p.
Procedure: Male Swiss-Webster mice (HSD ND4, Harlan Sprague Dawley, Houston, Tex.) aged 2–3 months were used in these studies. Each dose group consisted of 8 mice. The mice were housed 2 to 4 per cage in 30.4×22.9×15.2 cm clear polycarbonate cages with food and water available ad libitum for at least one week prior to locomotor activity testing. The colony was maintained at 23±1° C., on a normal light-dark cycle beginning at 0700 hr. All testing took place during the light portion of the light-dark cycle.
Horizontal (forward movement) locomotor activity was measured using a standardized, optical activity monitoring system [Model KXYZCM (16), Omnitech Electronics, Columbus, Ohio]. Activity was monitored in forty 40.5×40.5×30.5 cm clear acrylic chambers that where housed in sets of two within larger sound-attenuating chambers. A panel of 16 infrared beams and corresponding photodetectors were spaced 2 cm apart along the sides and 2.4 cm above the floor of each activity chamber. A 7.5-W incandescent light above each chamber provided dim illumination via a rheostat set to 20% of full scale. Fans provided an 80-dB ambient noise level within the chamber.
Triprolidine HCl was obtained from Research Biochemicals International, (Natick, Mass.).
Locomotor stimulant effects. […] (+)-Amphetamine was used as a positive control. The total horizontal distance traversed (cm) was recorded at 10 minute intervals for a 2-hour session. Separate groups of 8 mice were assigned to each dose or saline group, and dose-effect testing continued for each compound until maximal stimulant or depressant effects could be estimated. A separate control group was tested along with each compound.
Using TableCurve 2D v2.03 (Jandel Scientific), the mean average total distance traversed (cm/10 min) for that period was fit to a 3-parameter logistic peak function of log10 dose (with the constant set to the mean of the saline group), and the maximum effect estimated from the resulting curve. The […] (dose producing ½ maximal stimulant activity) was estimated from a linear regression against log10 dose of the ascending portion of the dose-effect curve. The stimulant efficacy was the peak effect of the compound (cm/10 min) as estimated from the logistic peak function, minus the mean control distance traveled (cm/10 min), and was expressed for each stimulant compound as a ratio to the stimulant efficacy determined for (+)-amphetamine.
The mean average total distance traversed (cm/10 min) for that period were fit to a linear function of log10 dose of the descending portion of the dose-effect curve. […] Efficacy was the ratio of maximal depressant effect to maximum possible depression for each compound (mean average total distance of the control group minus the lowest mean total distance, expressed as a ratio to the control group total distance).
as §5

[5] = 1% topical, drug treated eye (T), 0.5 hr
[6] = 1% topical, drug treated eye (T), 1 hr
[7] = 1% topical, drug treated eye (T), 3 hr
[8] = 1% topical, drug treated eye (T), 5 hr
[9] = 1% topical, drug treated eye (T), −0.5 hr (pre-treatment)
[10] = 1% topical, drug treated eye (T), −1 hr (pre-treatment)
[11] = 1% topical, untreated contralateral eye (U), 0.5 hr
[12] = 1% topical, untreated contralateral eye (U), 1 hr
[13] = 1% topical, untreated contralateral eye (U), 3 hr
[14] = 1% topical, untreated contralateral eye (U), 5 hr
[15] = 1% topical, untreated contralateral eye (U), −0.5 hr (pre-treatment)
[16] = 1% topical, untreated contralateral eye (U), −1 hr (pre-treatment)
[17] = 2% topical, drug treated eye (T), 0.5 hr
[18] = 2% topical, drug treated eye (T), 1 hr
[19] = 2% topical, drug treated eye (T), 3 hr
[20] = 2% topical, drug treated eye (T), 5 hr
[21] = 2% topical, drug treated eye (T), −0.5 hr (pre-treatment)
[22] = 2% topical, drug treated eye (T), −1 hr (pre-treatment)
[23] = 2% topical, untreated contralateral eye (U), 0.5 hr
[24] = 2% topical, untreated contralateral eye (U), 1 hr
[25] = 2% topical, untreated contralateral eye (U), 3 hr
[26] = 2% topical, untreated contralateral eye (U), 5 hr
[27] = 2% topical, untreated contralateral eye (U), −0.5 hr (pre-treatment)
[28] = 2% topical, untreated contralateral eye (U), −1 hr (pre-treatment)

**Q.** `CNC[C@@H](O)c1cccc(O)c1` [(+)-Phenylephrine, (+)-phenylephrine] was tested. Which “Pupil Diameter” value [1, 5] did it give?
**A.** 6 ± 0.2 mm

**Q.** And the “Pupil Diameter” value [1, 6]?
**A.** 9 ± 0.2 mm

**Q.** What about the “Pupil Diameter” value [1, 7] of the same compound?
**A.** 9 ± 0.2 mm

**Q.** And the “Pupil Diameter” value [1, 8]?
**A.** 9 ± 0.2 mm

**Q.** What about the “Pupil Diameter” value [1, 9] of the same compound?
**A.** 5 ± 0.2 mm

**Q.** And the “Pupil Diameter” value [1, 10]?
**A.** 5 ± 0.2 mm

**Q.** And the “Pupil Diameter” value [1, 11]?
**A.** 6 ± 0.2 mm

**Q.** And the “Pupil Diameter” value [1, 12]?
**A.** 9 ± 0.2 mm

**Q.** And the “Pupil Diameter” value [1, 13]?
**A.** 9 ± 0.2 mm

**Q.** And the “Pupil Diameter” value [1, 14]?
**A.** 9 ± 0.2 mm

**Q.** What about the “Pupil Diameter” value [1, 15] of the same compound?
**A.** 5 ± 0.2 mm

**Q.** And the “Pupil Diameter” value [1, 16]?
**A.** 5 ± 0.2 mm

**Q.** What about the “Pupil Diameter” value [1, 17] of the same compound?
**A.** 6 ± 0.2 mm

**Q.** What about the “Pupil Diameter” value [1, 18] of the same compound?
**A.** 9 ± 0.2 mm

**Q.** What about the “Pupil Diameter” value [1, 19] of the same compound?
**A.** 9 ± 0.2 mm

**Q.** And the “Pupil Diameter” value [1, 20]?
**A.** 9 ± 0.2 mm

**Q.** And the “Pupil Diameter” value [1, 21]?
**A.** 5 ± 0.2 mm

**Q.** What about the “Pupil Diameter” value [1, 22] of the same compound?
**A.** 5 ± 0.2 mm

**Q.** And the “Pupil Diameter” value [1, 23]?
**A.** 6 ± 0.2 mm

**Q.** What about the “Pupil Diameter” value [1, 24] of the same compound?
**A.** 9 ± 0.2 mm

**Q.** And the “Pupil Diameter” value [1, 25]?
**A.** 9 ± 0.2 mm

**Q.** What about the “Pupil Diameter” value [1, 26] of the same compound?
**A.** 9 ± 0.2 mm

**Q.** What about the “Pupil Diameter” value [1, 27] of the same compound?
**A.** 5 ± 0.2 mm

**Q.** What about the “Pupil Diameter” value [1, 28] of the same compound?
**A.** 5 ± 0.2 mm

**Q.** What about the “effect of triprolidine pretreatment on stimulant or depressant effects” value (Swiss-Webster mice [2]) of the same compound?
**A.** failed to show significant modification of stimulant or depressant effects

**Q.** And the IOP [3, 5]?
**A.** 16 ± 1.5 mmHg

**Q.** What about the IOP [3, 6] of the same compound?
**A.** 16 ± 0.7 mmHg

**Q.** What about the IOP [3, 7] of the same compound?
**A.** 15 ± 0.5 mmHg

**Q.** And the IOP [3, 8]?
**A.** 16 ± 1.0 mmHg

**Q.** What about the IOP [3, 9] of the same compound?
**A.** 18 ± 2.1 mmHg

**Q.** And the IOP [3, 10]?
**A.** 19 ± 1.8 mmHg

**Q.** What about the IOP [3, 11] of the same compound?
**A.** 19 ± 1.8 mmHg

**Q.** What about the IOP [3, 12] of the same compound?
**A.** 17 ± 1.1 mmHg

**Q.** And the IOP [3, 13]?
**A.** 16 ± 1.0 mmHg

**Q.** What about the IOP [3, 14] of the same compound?
**A.** 17 ± 1.7 mmHg

**Q.** And the IOP [3, 15]?
**A.** 19 ± 2.0 mmHg

**Q.** And the IOP [3, 16]?
**A.** 21 ± 2.0 mmHg

**Q.** And the IOP [3, 17]?
**A.** 20 ± 1.7 mmHg

**Q.** And the IOP [3, 18]?
**A.** 19 ± 1.8 mmHg

**Q.** And the IOP [3, 19]?
**A.** 19 ± 2.2 mmHg

**Q.** And the IOP [3, 20]?
**A.** 16 ± 2.4 mmHg

**Q.** And the IOP [3, 21]?
**A.** 19 ± 0.8 mmHg

**Q.** And the IOP [3, 22]?
**A.** 19 ± 0.9 mmHg

**Q.** And the IOP [3, 23]?
**A.** 21 ± 1.7 mmHg

**Q.** And the IOP [3, 24]?
**A.** 22 ± 2.2 mmHg

**Q.** What about the IOP [3, 25] of the same compound?
**A.** 20 ± 1.8 mmHg

**Q.** And the IOP [3, 26]?
**A.** 18 ± 1.9 mmHg

**Q.** And the IOP [3, 27]?
**A.** 19 ± 2.2 mmHg

**Q.** And the IOP [3, 28]?
**A.** 19 ± 1.6 mmHg

**Q.** And the “Depression Time: 30-min period following injection in which the maximal depression occurred” value (Swiss-Webster mice [4])?
**A.** 0 to 30 min

**Q.** What about the “Stimulation Time: 30-min period following injection in which the maximal stimulant effect occurred” value (Swiss-Webster mice [4]) of the same compound?
**A.** 60 to 90 min

**Q.** And the “locomotor depressant effects, time course (result in words)” value (Swiss-Webster mice [4])?
**A.** dose-dependent locomotor depression within 10 to 20 minutes following injection

**Q.** And the “Depression Potency: dose resulting in ½ the maximal depressant effect (ID50)” value (Swiss-Webster mice [4]; — denotes absence of significant effect)?
**A.** 53.3 mg/kg

Source: patent publication US7232837B2, “Stereoisomers with high affinity for adrenergic receptors” (McNeil-PPC, Inc., priority 1999, dated 2007)
